Earlier results, collected in patent US20260234217A1, “USE OF BMP RECEPTOR ALK1 INHIBITORS IN OSTEOARTHRITIS THERAPIES” (The Regents of the University of California, priority 2023, published 2026).

Target: ALK3 (Homo sapiens, UniProt P36894)
Details: kinase assay; cited from earlier work

Chain of ALK3 (P36894 24-532, species assumed): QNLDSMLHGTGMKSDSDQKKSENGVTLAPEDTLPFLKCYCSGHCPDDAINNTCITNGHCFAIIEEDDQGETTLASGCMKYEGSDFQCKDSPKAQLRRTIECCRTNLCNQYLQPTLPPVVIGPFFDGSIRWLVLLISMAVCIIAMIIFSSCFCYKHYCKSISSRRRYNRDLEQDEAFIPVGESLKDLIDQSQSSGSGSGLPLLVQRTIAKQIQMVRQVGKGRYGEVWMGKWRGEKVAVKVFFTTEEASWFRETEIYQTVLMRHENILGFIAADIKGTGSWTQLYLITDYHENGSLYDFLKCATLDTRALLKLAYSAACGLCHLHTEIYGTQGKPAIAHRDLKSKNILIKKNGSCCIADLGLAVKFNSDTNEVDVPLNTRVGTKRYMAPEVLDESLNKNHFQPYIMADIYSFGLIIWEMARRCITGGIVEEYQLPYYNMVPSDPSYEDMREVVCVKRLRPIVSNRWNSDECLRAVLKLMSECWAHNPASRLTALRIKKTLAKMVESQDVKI

COc1cc(-c2cc(-c3ccc(N4CCNCC4)cc3)cnc2C)cc(OC)c1OC [LDN-214117]
IC50: 1.17 µM
